Source: ChEMBL document CHEMBL1136068 (Bioorg Med Chem Lett, 2003)
The source made the active and inactive calls. No cut-off for these calls is given here.

What was measured:
Progesterone receptor [1] = biological target: T1, Progesterone receptor (Homo sapiens, UniProt P06401); test: Inhibitory concentration for antagonistic activity towards human progesterone receptor (hPR) using the cotransfection assay in CV-1 cells; Not active; format: functional, cell-based
T1 sequence (P06401 whole entry): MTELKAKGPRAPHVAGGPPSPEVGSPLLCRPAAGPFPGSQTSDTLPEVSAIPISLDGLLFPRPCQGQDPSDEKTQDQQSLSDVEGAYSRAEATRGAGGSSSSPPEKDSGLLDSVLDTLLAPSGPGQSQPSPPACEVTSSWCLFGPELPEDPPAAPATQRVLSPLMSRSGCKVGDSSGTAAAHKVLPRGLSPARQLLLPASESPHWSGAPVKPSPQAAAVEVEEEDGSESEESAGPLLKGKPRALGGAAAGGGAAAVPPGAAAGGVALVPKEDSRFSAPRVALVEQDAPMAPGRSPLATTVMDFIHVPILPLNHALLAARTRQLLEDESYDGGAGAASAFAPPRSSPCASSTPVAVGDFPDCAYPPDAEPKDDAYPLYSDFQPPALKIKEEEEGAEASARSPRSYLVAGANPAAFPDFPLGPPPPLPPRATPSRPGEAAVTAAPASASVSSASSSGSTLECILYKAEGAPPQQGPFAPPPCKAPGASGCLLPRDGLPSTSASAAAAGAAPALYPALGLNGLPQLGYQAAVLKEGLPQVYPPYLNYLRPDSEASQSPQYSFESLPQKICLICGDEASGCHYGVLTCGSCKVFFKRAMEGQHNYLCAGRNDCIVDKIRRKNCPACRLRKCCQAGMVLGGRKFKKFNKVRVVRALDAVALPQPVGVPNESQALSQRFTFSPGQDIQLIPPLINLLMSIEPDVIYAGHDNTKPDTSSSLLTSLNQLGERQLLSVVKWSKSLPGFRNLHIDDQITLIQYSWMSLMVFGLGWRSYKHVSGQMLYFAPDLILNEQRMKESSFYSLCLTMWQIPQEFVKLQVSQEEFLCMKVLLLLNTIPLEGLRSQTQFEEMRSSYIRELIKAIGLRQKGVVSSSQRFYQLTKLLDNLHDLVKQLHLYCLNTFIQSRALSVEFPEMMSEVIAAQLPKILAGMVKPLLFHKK

Estrogen receptor [2] = biological target: T2, Estrogen receptor (Homo sapiens, UniProt Q92731+P03372); test: Inhibitory activity against human Estrogen receptor; not active; format: protein assay
Estrogen receptor [3] = biological target: T2, Estrogen receptor; test: Antagonist efficacy with estrogen (hER) receptor; not active; format: functional
[4] = biological target: T3, Mineralocorticoid receptor (Homo sapiens, UniProt P08235); test: Antagonist activity at mineralocorticoid receptor (hMR); not active; format: functional
T3 sequence (P08235 whole entry): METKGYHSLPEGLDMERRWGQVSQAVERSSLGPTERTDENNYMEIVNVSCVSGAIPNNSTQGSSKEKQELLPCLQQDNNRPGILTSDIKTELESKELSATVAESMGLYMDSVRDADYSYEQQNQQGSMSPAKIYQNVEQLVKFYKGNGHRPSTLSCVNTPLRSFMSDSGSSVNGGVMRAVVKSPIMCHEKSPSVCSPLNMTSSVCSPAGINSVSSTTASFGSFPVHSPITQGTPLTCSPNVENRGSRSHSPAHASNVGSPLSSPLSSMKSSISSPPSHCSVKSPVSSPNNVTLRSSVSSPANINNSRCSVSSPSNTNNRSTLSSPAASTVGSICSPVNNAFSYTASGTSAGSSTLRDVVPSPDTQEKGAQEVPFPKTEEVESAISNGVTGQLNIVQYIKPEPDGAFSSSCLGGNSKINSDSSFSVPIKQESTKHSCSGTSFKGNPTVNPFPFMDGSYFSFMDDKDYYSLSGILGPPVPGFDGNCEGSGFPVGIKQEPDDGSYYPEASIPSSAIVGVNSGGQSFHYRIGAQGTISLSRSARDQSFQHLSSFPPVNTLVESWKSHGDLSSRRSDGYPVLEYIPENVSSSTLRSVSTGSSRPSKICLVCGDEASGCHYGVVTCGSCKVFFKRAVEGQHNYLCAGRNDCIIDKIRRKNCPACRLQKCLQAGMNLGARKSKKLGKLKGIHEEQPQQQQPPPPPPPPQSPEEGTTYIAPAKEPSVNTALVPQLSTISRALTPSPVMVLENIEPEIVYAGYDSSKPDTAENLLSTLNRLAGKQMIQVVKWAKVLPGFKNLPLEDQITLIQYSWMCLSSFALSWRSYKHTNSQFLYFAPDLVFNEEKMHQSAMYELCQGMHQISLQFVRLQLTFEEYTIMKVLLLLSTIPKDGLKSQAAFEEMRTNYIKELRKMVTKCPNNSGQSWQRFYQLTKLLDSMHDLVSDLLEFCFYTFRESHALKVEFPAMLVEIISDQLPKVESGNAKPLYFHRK

Progesterone receptor [5] = biological target: T1, Progesterone receptor; test: Binding affinity to human progesterone receptor
[6] = biological target: T4, Progesterone receptor (Homo sapiens) (UniProt P06401); test: Agonist efficacy towards human progesterone receptor (hPR) using the cotransfection assay in CV-1 cells; format: functional, cell-based
T4 sequence (whole entry): T1 sequence (P06401 whole entry)

[7] = biological target: T4, Progesterone receptor (Homo sapiens); test: Antagonistic efficacy towards human progesterone receptor (hPR) using the cotransfection assay in CV-1 cells; Not active; format: functional, cell-based
[8] = biological target: T5, Mineralocorticoid receptor (Homo sapiens) (UniProt P08235); test: Antagonist efficacy at mineralocorticoid receptor (hMR); not active; format: functional
T5 sequence (whole entry): T3 sequence (P08235 whole entry)

Progesterone receptor [9] = biological target: T1, Progesterone receptor; test: Effective concentration for agonist activity towards human progesterone receptor (hPR) using the cotransfection assay in CV-1 cells; format: functional, cell-based
Glucocorticoid receptor = biological target: T6, Glucocorticoid receptor (Homo sapiens, UniProt P04150); test: Antagonist activity at glucocorticoid (hGR) receptor; format: functional
T6 sequence (P04150 whole entry): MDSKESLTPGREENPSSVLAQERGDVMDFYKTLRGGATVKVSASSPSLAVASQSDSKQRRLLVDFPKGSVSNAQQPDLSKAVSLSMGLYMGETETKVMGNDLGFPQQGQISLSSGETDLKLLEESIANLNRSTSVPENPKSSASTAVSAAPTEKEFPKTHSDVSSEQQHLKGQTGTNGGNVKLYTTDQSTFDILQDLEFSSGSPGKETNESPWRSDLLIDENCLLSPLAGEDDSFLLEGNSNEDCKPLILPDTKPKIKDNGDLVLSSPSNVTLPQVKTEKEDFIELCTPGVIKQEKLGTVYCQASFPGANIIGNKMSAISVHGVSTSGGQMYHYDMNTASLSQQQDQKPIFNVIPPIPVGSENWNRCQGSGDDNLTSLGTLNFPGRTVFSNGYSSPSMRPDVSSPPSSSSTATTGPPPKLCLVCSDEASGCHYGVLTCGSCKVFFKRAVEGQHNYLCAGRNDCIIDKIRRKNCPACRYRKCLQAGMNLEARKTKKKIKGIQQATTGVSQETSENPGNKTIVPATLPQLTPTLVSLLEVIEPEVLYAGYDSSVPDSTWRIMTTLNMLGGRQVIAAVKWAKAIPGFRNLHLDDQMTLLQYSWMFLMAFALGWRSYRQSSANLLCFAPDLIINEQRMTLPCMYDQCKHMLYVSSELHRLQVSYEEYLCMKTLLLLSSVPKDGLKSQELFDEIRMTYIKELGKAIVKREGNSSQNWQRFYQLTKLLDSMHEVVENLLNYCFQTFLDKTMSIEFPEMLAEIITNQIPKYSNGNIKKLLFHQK

Row | Compound | IC50 (Progesterone receptor [1]) | IC50 (Estrogen receptor [2]) | Efficacy (Estrogen receptor [3]) | IC50 [4] | Ki (Progesterone receptor [5]) | Efficacy [6] | Efficacy [7] | Efficacy [8] | EC50 (Progesterone receptor [9]) | IC50 (Glucocorticoid receptor)
1 | CC1=CC(C)(C)Nc2ccc3c(c21)/C(=C/Br)Oc1ccc(F)cc1-3 | Not Active | > 1000 nM | < 20% | > 1000 nM | 2.1 nM | 135% | inactive | < 20% | 2.2 nM | 
2 | CC(C)=C/C=C1\Oc2ccc(F)cc2-c2ccc3c(c21)C(C)=CC(C)(C)N3 | Not Active | > 1000 nM | < 20% | > 1000 nM |  | 172% | inactive | < 20% | 1.7 nM | 177 nM
3 | CC/C(C)=C1\Oc2ccc(F)cc2-c2ccc3c(c21)C(C)=CC(C)(C)N3 | Not Active |  |  |  | 8 nM | 112% | inactive |  | 11 nM | 
4 | CC(=O)C[C@]1(C(C)=O)CC[C@H]2C3C[C@H](C)C4=CC(=O)CC[C@]4(C)[C@H]3CC[C@@]21C (stereo partly drawn) | Not Active | > 1000 nM | < 20% | > 1000 nM | 0.34 nM | 80% | inactive | < 20% | 0.15 nM | 10 nM
